The record followed here is patent publication US4888417A, “Therapeutic and prophylactic agents for peptic ulcer” (Green Cross Corporation, priority 1985, dated 1989).

One test deals with Serotonin Induced Ulcer. Briefly: Serotonin Induced Ulcer. The format is in vivo, Wister strain male rats. Further details: unit not given here. Particulars: 30 min before serotonin; for Ulcer Index: mean ± standard error (n=8). The protocol: Wister strain male rats (weighing 160 to 180 g) were used after one day's fasting. Serotonin creatinine sulfate (30 mg/ml) was subcutaneously administered to the rats on the back at a rate of 1 ml per kg of the body weight. The stomach was excised 5 hours after administration of serotonin, and the total area of hemorrhagic erosion was measured as an ulcer index. The test drug was intragastrically administered to the rats through an oral Zonde (probe) 30 minutes before administration of serotonin.
(§1) Each numeral in the table indicates the mean ± standard error (n=8)
(§2) All the test drugs (compounds of this invention) were intragastrically administered by an oral Zonde (probe).

Another test relates to Stress Ulcer. Briefly: Stress Ulcer. The format is in vivo, Wister strain male rats. As to conditions: immediately before stress; for Ulcer Index: mean ± standard error (n=8). The protocol: Wister strain male rats (weighing 230-250 g) were fasted for 2 days, then, while confined in a Tokyo University Pharmaceutics Laboratory model cage, they were immersed up to the xiphocosta and pulled up 6 hours later, to determine the ulcer index. That is, the rats were clubbed to death, the major axis of hemorrhagic erosion was measured, and the total was made the ulcer index. the test drug was intragastrically administered through an oral Zonde (probe) immediately before the loading of stress.
as §1, §2

Another test relates to Ethanol Induced Ulcer. Put plainly: Ethanol Induced Ulcer. The arrangement: Rate of Inhibition: unit not given here. It counts as in vivo, Wister strain male rats. As to conditions: 30 min before ethanol; for Ulcer Index: mean ± standard error (n=8). The protocol: Wister strain male rats (weighing 160-180 g) were fasted for one day and intragastrically administed with 50% (v/v) ethanol at a rate of 1 ml per rat. The test drug was intragastirically administered through an oral Zonde (probe) 30 minutes before administration of ethanol. One hour after administration of ethanol, the rats were poisoned to death by inhalation of chloroform, each stomach was excised, the major axis of hemorrhagic erosion on the stomach part was measured, and the total was made an ulcer index.
as §1, §2

The nature of test [1]: anti-ulcer activity used as index in fractionation. Particulars: single (peak) component from HPLC fractionation of cinnamon extract. The protocol:
After washing with water, the resin was eluted using a 40 to 80% methanol aqueous solution as an eluent; the eluted fraction thus obtained was concentrated under reduced pressure and freeze dried to afford 148 g of a crude powder.
50 kg of cinnamon was treated with hot water at 60° to 100° C. for 1 to 2 hours, and the resultant extract was adsorbed onto 100 to 140 liters of the Amberlite XAD-2 resin. This resin was washed with water, then eluted using a 40 to 80% aqueous methanol solution as an eluent; the eluted fraction thus obtained was concentrated under reduced pressure and freeze dried to obtain 148 g of a crude powder.
200 kg of cinammon was treated with hot water at 60° to 100° C. for 1 to 2 hours, and the resultant extract was adsorbed onto 400 to 500 liters of the Amberlite XAD-2 resin. This resin was washed with water, then eluted with a 40 to 80% aqueous methanol solution as an eluent, the eluted fraction thus obtained was concentrated under reduced pressure and freeze-dried to obtain 590 g of a crude powder.

`CC(=O)C=C=C1C(C)(C)CC(O[C@@H]2O[C@H](CO[C@@H]3OC[C@](O)(CO)[C@H]3O)[C@@H](O)[C@H](O)[C@H]2O)CC1(C)O` (stereo partly drawn) [(III-1)]: the “Rate of Inhibition” value with Serotonin Induced Ulcer (0.075 μg/kg intragastric) stood at 2.9; in the test with Serotonin Induced Ulcer (0.15 μg/kg intragastric) it was 75.4; with Stress Ulcer (0.075 μg/kg intragastric), 41.3; in the test on Stress Ulcer (0.15 μg/kg intragastric), 66.8; with Ethanol Induced Ulcer (0.075 μg/kg intragastric) it was 51.6; with Ethanol Induced Ulcer (0.15 μg/kg intragastric), 56.5. Besides, the “Ulcer Index” value in the test with Serotonin Induced Ulcer (0.075 μg/kg intragastric) amounted to 17.0 ± 3.1; with Serotonin Induced Ulcer (0.15 μg/kg intragastric) it was 4.3 ± 1.1; in the test with Stress Ulcer (0.075 μg/kg intragastric) it was 16.6 ± 3.2; in the test with Stress Ulcer (0.15 μg/kg intragastric), 9.4 ± 2.3; in the test on Ethanol Induced Ulcer (0.075 μg/kg intragastric), 24.7 ± 10.6; with Ethanol Induced Ulcer (0.15 μg/kg intragastric), 22.2 ± 8.1. For the same compound, in test [1], the “anti-ulcer activity among fractions” value is given as “manifesting the activity most strongly”.

Consider `CC1=C(/C=C/C(CO)CO)C(C)(CO[C@@H]2O[C@H](CO)[C@@H](O)[C@H](O)[C@H]2O)CCC1=O` (stereo partly drawn) [(IV-1), 2,4-dimethyl-3-(4-hydroxy-3-hydroxymethyl-1-butenyl)-4-(β-D-glucopyranosyl)oxymethyl-2-cyclohexen-1-one], for which, in the test on Serotonin Induced Ulcer (0.1 μg/kg intragastric), the “Rate of Inhibition” value is listed as 47.0 and the “Ulcer Index” value is 7.1 ± 3.4. Further, in the test on Serotonin Induced Ulcer (1 μg/kg intragastric), the “Rate of Inhibition” value is reported as 51.5 and the “Ulcer Index” value is 6.5 ± 2.5. The “anti-ulcer activity among fractions” value in test [1] is listed as “manifesting the activity most strongly”.

Regarding `COc1cc(O)cc(OC)c1OC` [(II-2), 3,4,5-trimethoxyphenol], in the test on Serotonin Induced Ulcer (0.05 μg/kg intragastric), the “Rate of Inhibition” value was determined as 26.7 and the “Ulcer Index” value was found to be 15.1 ± 4.6. Besides, in the test with Serotonin Induced Ulcer (0.15 μg/kg intragastric), the “Rate of Inhibition” value is reported as 45.6 and the “Ulcer Index” value amounted to 11.2 ± 2.4.

In the case of `CC1=C(/C=C/C(CO)CO)C(C)(CO)CCC1=O` (stereo not drawn) [(IV-2)], in the test with Serotonin Induced Ulcer (0.06 μg/kg intragastric), the “Rate of Inhibition” value is listed as 65.7 and the “Ulcer Index” value turned out to be 4.6 ± 1.2. In the test on Serotonin Induced Ulcer (6 μg/kg intragastric), the “Rate of Inhibition” value is given as 76.9 and the “Ulcer Index” value is recorded as 3.1 ± 1.2.

As for `COc1cc(O[C@@H]2O[C@H](CO[C@@H]3OC[C@](O)(CO)[C@H]3O)[C@@H](O)[C@H](O)[C@H]2O)cc(OC)c1OC` [(II-1), 3,4,5-trimethoxyphenol-β-D-apiofranosyl-(1→6)-β-D-glucopyranoside], the “Rate of Inhibition” value in the test with Serotonin Induced Ulcer (0.15 μg/kg intragastric) is on record as 57.1; in the test with Serotonin Induced Ulcer (0.30 μg/kg intragastric), 70.9; in the test with Stress Ulcer (0.15 μg/kg intragastric) it was 23.7; with Stress Ulcer (0.30 μg/kg intragastric), 58.5; with Ethanol Induced Ulcer (0.15 μg/kg intragastric), 11.1; in the test with Ethanol Induced Ulcer (0.30 μg/kg intragastric), 47.1. Moreover, the “Ulcer Index” value in the test with Serotonin Induced Ulcer (0.15 μg/kg intragastric) is given as 7.5 ± 2.3; with Serotonin Induced Ulcer (0.30 μg/kg intragastric), 5.1 ± 1.9; in the test with Stress Ulcer (0.15 μg/kg intragastric) it was 21.6 ± 5.8; with Stress Ulcer (0.30 μg/kg intragastric) it was 11.7 ± 3.0; in the test on Ethanol Induced Ulcer (0.15 μg/kg intragastric), 45.3 ± 14.0; in the test on Ethanol Induced Ulcer (0.30 μg/kg intragastric) it was 27.0 ± 7.4. Moreover, the “anti-ulcer activity among fractions” value in test [1] is “manifesting the activity most strongly”.
